PubChem BioAssay AID1963861 (Molecular Pharmacology Branch, DTP, NCI, 2024)
Where “and” joins values, the source holds several entries; their conditions need not be identical. Identical values can stand only once.

Tested on: 885724-159-R-J1-PDC KRAS PDC multicell spheroid viability
Experiment: Anticancer human tumor 885724-159-R-J1-PDC patient-derived pancreatic adenocarcinoma cell line growth inhibition [KRAS2]
Details: for viability, T/C: stronger effect = lower value
Source text: Multicellular complex tumor spheroid response to RAS pathway inhibitors in combination with a targeted agents in patient-derived cell lines with oncogenic KRAS variants from multiple cancer types
A high-throughput screen of multi-cell type tumor spheroids was designed to identify active combinations of targeted small molecules and KRAS pathway inhibitors. Complex spheroids include a stromal component modeled by human endothelial cells (HUVEC) and fibroblasts modeled by human mesenchymal stem cells (MSCs). The concentration ranges selected for each drug and investigational agent were based upon clinically achievable concentrations if the clinical Cmax of the agent was known.
Compounds. The drugs and investigational agents: BI-3406 (NSC825286), BAY-293 (NSC824723), batoprotafib (TNO155; NSC825523), sotorasib (AMG 510; NSC818433), MRTX1257 (NSC819558), elimusertib (BAY 1895344; NSC800525), molibresib (GSK525762; NSC774829), temuterkib (LY3214996; NSC803410), venetoclax (NSC766270), alisertib (NSC759677), olaparib (NSC753686), talazoparib (NSC767125), erdafitinib (NSC781556), ipatasertib (NSC767898), cabozantinib (NSC761068), nintedanib (NSC756659), abemaciclib (NSC768073), docetaxel (NSC628503), trametinib (NSC758246), and sapanisertib (NSC764658) were obtained from the National Cancer Institute (NCI) Developmental Therapeutics Program Chemical Repository. The FDA-approved anticancer drug set is available from the Developmental Therapeutics Program. […] The stock solutions were prepared in dimethyl sulfoxide (DMSO, Sigma-Aldrich, St. Louis, MO, cat. D2650) at 800-fold the tested concentration and stored at -70 degrees C prior to their use. All drugs and investigational agents were tested over a range starting from a high concentration at or near the clinical Cmax and decreasing in half-log increments. If the clinical Cmax for an agent had not been determined, the highest concentration tested was 10 microM.
Cell Culture. All cells were maintained in an incubator at 37 degrees C and 5% CO2 with 95% humidity. The PDC lines were cultured according to standard operating procedures established by the NCI PDMR (https://pdmr.cancer.gov/sops/default.htm). Briefly, all PDCs were thawed and cultured in Matrigel-coated flasks prepared with a working solution of 1X Ham's F-12 nutrient mix, without supplementation (Invitrogen, Waltham, MA, cat. 11765054), 100 U/mL penicillin-streptomycin (Invitrogen, cat. 15140122), and 2.5% Matrigel (Corning Inc., Corning, NY, cat. 354248) for the first three passages. All PDCs were cultured in complete DMEM/F-12 media containing advanced DMEM/F-12 (Invitrogen, cat. 12634028), 4.9% defined fetal bovine serum, heat inactivated (HyClone Laboratories Inc., Logan, UT, cat. SH30070.03HI), 389 ng/mL hydrocortisone (Sigma-Aldrich, cat. H4001), 9.7 ng/mL human EGF recombinant protein (Invitrogen, cat. PHG0313), 23.4 microg/mL adenine (Sigma-Aldrich, cat. A2786), 97.3 U/mL penicillin-streptomycin (Invitrogen, cat. 15140122), 1.9 mM L-glutamine (Invitrogen, cat. 25030081), and 9.7 microM Y-27632 dihydrochloride (Tocris Bioscience, Bristol, United Kingdom, cat. 1254). The PDCs were cultured in complete DMEM/F12 media without 9.7 microM Y-27632 dihydrochloride for at least two passages prior to the screen. The established cell line HOP-62 was cultured in RPMI 1640 medium, HEPES (Invitrogen, cat. 22400105) with 10% defined fetal bovine serum (HyClone Laboratories Inc., cat. SH30070.03) and 2 mM L-glutamine (Invitrogen, cat. 25030081). The pooled donor HUVEC were cultured in endothelial cell growth medium 2 (PromoCell, Heidelberg, Germany, cat. C-22011) and the hMSC were cultured in mesenchymal stem cell growth medium 2 (PromoCell, cat. C-28009). For all experiments, HUVEC and hMSC were used at passages </=5, while the malignant cell lines were used at passages </=15. […]

[1] = compound alone, run of 08/19/2021
[2] = compound alone, run of 08/26/2021
[3] = compound alone, run of 09/02/2021
[4] = curve of first compound, second compound 0.1 µM
[5] = curve of first compound, second compound 0.316 µM
[6] = curve of first compound, second compound 1 µM
[7] = curve of first compound, second compound 3.16 µM
[8] = curve of first compound, second compound 10 µM
[9] = second compound 0.1 µM, first compound 0.01 µM
[10] = second compound 0.1 µM, first compound 0.0316 µM
[11] = second compound 0.1 µM, first compound 0.1 µM
[12] = second compound 0.1 µM, first compound 0.316 µM
[13] = second compound 0.1 µM, first compound 1 µM
[14] = second compound 0.1 µM, first compound 3.16 µM
[15] = second compound 0.316 µM, first compound 0.01 µM
[16] = second compound 0.316 µM, first compound 0.0316 µM
[17] = second compound 0.316 µM, first compound 0.1 µM
[18] = second compound 0.316 µM, first compound 0.316 µM
[19] = second compound 0.316 µM, first compound 1 µM
[20] = second compound 0.316 µM, first compound 3.16 µM
[21] = second compound 1 µM, first compound 0.01 µM
[22] = second compound 1 µM, first compound 0.0316 µM
[23] = second compound 1 µM, first compound 0.1 µM
[24] = second compound 1 µM, first compound 0.316 µM
[25] = second compound 1 µM, first compound 1 µM
[26] = second compound 1 µM, first compound 3.16 µM
[27] = second compound 3.16 µM, first compound 0.01 µM
[28] = second compound 3.16 µM, first compound 0.0316 µM
[29] = second compound 3.16 µM, first compound 0.1 µM
[30] = second compound 3.16 µM, first compound 0.316 µM
[31] = second compound 3.16 µM, first compound 1 µM
[32] = second compound 3.16 µM, first compound 3.16 µM
[33] = second compound 10 µM, first compound 0.01 µM
[34] = second compound 10 µM, first compound 0.0316 µM
[35] = second compound 10 µM, first compound 0.1 µM
[36] = second compound 10 µM, first compound 0.316 µM
[37] = second compound 10 µM, first compound 1 µM
[38] = second compound 10 µM, first compound 3.16 µM
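Note: spheroids exposed to agents for 7 days before readout.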

## C=CC(=O)N1CCN(c2nc(=O)n(-c3c(C)ccnc3C(C)C)c3nc(-c4c(O)cccc4F)c(F)cc23)C(C)C1 (configuration not stated)
Compound 0.1 µM
  viability, T/C: 107% [middle of 15 runs]
Compound 0.316 µM
  viability, T/C: 107% [middle of 15 runs]
Compound 1 µM
  viability, T/C: 106% [middle of 15 runs]
[1]
  IC50: > 10 µM
[2]
  IC50: > 10 µM
[3]
  IC50: > 10 µM

## CNCc1ccccc1-c1csc(C(C)Nc2nc(C)nc3cc(OC)c(OC)cc23)c1 (configuration not stated)
Compound 0.1 µM
  viability, T/C: 101% [middle of 15 runs]
Compound 0.316 µM
  viability, T/C: 101% [middle of 15 runs]
Compound 10 µM
  viability, T/C: 0.23% [middle of 13 runs]
[2]
  IC50: 1.65 µM [middle of 5 runs]
[3]
  IC50: 1.6 µM and 1.72 µM and 1.8 µM

## COc1cc2nc(C)nc(NC(C)c3cc(N)cc(C(F)(F)F)c3)c2cc1OC1CCOC1 (configuration not stated)
[1]
  IC50: > 10 µM and 8.35 µM and 7.91 µM

## CC(=O)OC12COC1CC(O)C1(C)C(=O)C(O)C3=C(C)C(OC(=O)C(O)C(NC(=O)OC(C)(C)C)c4ccccc4)CC(O)(C(OC(=O)c4ccccc4)C21)C3(C)C (configuration not stated) + C=CC(=O)N1CCN(c2nc(=O)n(-c3c(C)ccnc3C(C)C)c3nc(-c4c(O)cccc4F)c(F)cc23)C(C)C1
[4]
  IC50: > 3.16 µM
[5]
  IC50: > 3.16 µM
[6]
  IC50: > 3.16 µM
[7]
  IC50: > 3.16 µM
[8]
  IC50: > 3.16 µM
[9]
  viability, T/C: 91.7%
[10]
  viability, T/C: 104%
[11]
  viability, T/C: 95.5%
[12]
  viability, T/C: 107%
[13]
  viability, T/C: 110%
[14]
  viability, T/C: 112%
[15]
  viability, T/C: 94.6%
[16]
  viability, T/C: 102%
[17]
  viability, T/C: 104%
[18]
  viability, T/C: 112%
[19]
  viability, T/C: 112%
[20]
  viability, T/C: 112%
[21]
  viability, T/C: 105%
[22]
  viability, T/C: 119%
[23]
  viability, T/C: 114%
[24]
  viability, T/C: 103%
[25]
  viability, T/C: 119%
[26]
  viability, T/C: 125%
[27]
  viability, T/C: 99.1%
[28]
  viability, T/C: 114%
[29]
  viability, T/C: 113%
[30]
  viability, T/C: 112%
[31]
  viability, T/C: 111%
[32]
  viability, T/C: 121%
[33]
  viability, T/C: 80.8%
[34]
  viability, T/C: 84.1%
[35]
  viability, T/C: 87.7%
[36]
  viability, T/C: 86%
[37]
  viability, T/C: 86.6%
[38]
  viability, T/C: 78.3%

## CN(C)C/C=C/C(=O)Nc1cc2c(Nc3ccc(F)c(Cl)c3)ncnc2cc1O[C@H]1CCOC1 + C=CC(=O)N1CCN(c2nc(=O)n(-c3c(C)ccnc3C(C)C)c3nc(-c4c(O)cccc4F)c(F)cc23)C(C)C1
[4]
  IC50: > 0.1 µM
[5]
  IC50: > 0.1 µM
[6]
  IC50: > 0.1 µM
[7]
  IC50: > 0.1 µM
[8]
  IC50: > 0.1 µM
Second compound 0.1 µM, first compound 0.000316 µM
  viability, T/C: 116%
Second compound 0.1 µM, first compound 0.001 µM
  viability, T/C: 117%
Second compound 0.1 µM, first compound 0.00316 µM
  viability, T/C: 106%
[9]
  viability, T/C: 95.4%
[10]
  viability, T/C: 90.8%
[11]
  viability, T/C: 79.9%
Second compound 0.316 µM, first compound 0.000316 µM
  viability, T/C: 124%
Second compound 0.316 µM, first compound 0.001 µM
  viability, T/C: 118%
Second compound 0.316 µM, first compound 0.00316 µM
  viability, T/C: 101%
[15]
  viability, T/C: 101%
[16]
  viability, T/C: 92.6%
[17]
  viability, T/C: 86%
Second compound 1 µM, first compound 0.000316 µM
  viability, T/C: 130%
Second compound 1 µM, first compound 0.001 µM
  viability, T/C: 119%
Second compound 1 µM, first compound 0.00316 µM
  viability, T/C: 117%
[21]
  viability, T/C: 110%
[22]
  viability, T/C: 93.7%
[23]
  viability, T/C: 90.8%
Second compound 3.16 µM, first compound 0.000316 µM
  viability, T/C: 114%
Second compound 3.16 µM, first compound 0.001 µM
  viability, T/C: 117%
Second compound 3.16 µM, first compound 0.00316 µM
  viability, T/C: 104%
[27]
  viability, T/C: 97%
[28]
  viability, T/C: 101%
[29]
  viability, T/C: 89.4%
Second compound 10 µM, first compound 0.000316 µM
  viability, T/C: 89.4%
Second compound 10 µM, first compound 0.001 µM
  viability, T/C: 95%
Second compound 10 µM, first compound 0.00316 µM
  viability, T/C: 83.2%
[33]
  viability, T/C: 78.3%
[34]
  viability, T/C: 66.2%
[35]
  viability, T/C: 69.4%

## O=C(c1cc(Cc2n[nH]c(=O)c3ccccc23)ccc1F)N1CCN(C(=O)C2CC2)CC1 + C=CC(=O)N1CCN(c2nc(=O)n(-c3c(C)ccnc3C(C)C)c3nc(-c4c(O)cccc4F)c(F)cc23)C(C)C1
[4]
  IC50: > 10 µM
[5]
  IC50: > 10 µM
[6]
  IC50: > 10 µM
[7]
  IC50: > 10 µM
[8]
  IC50: > 10 µM
[10]
  viability, T/C: 117%
[11]
  viability, T/C: 115%
[12]
  viability, T/C: 111%
[13]
  viability, T/C: 113%
[14]
  viability, T/C: 109%
Second compound 0.1 µM, first compound 10 µM
  viability, T/C: 94.1%
[16]
  viability, T/C: 124%
[17]
  viability, T/C: 115%
[18]
  viability, T/C: 115%
[19]
  viability, T/C: 113%
[20]
  viability, T/C: 108%
Second compound 0.316 µM, first compound 10 µM
  viability, T/C: 103%
[22]
  viability, T/C: 121%
[23]
  viability, T/C: 119%
[24]
  viability, T/C: 117%
[25]
  viability, T/C: 118%
[26]
  viability, T/C: 114%
Second compound 1 µM, first compound 10 µM
  viability, T/C: 100%
[28]
  viability, T/C: 114%
[29]
  viability, T/C: 119%
[30]
  viability, T/C: 122%
[31]
  viability, T/C: 117%
[32]
  viability, T/C: 111%
Second compound 3.16 µM, first compound 10 µM
  viability, T/C: 93.5%
[34]
  viability, T/C: 86%
[35]
  viability, T/C: 84.8%
[36]
  viability, T/C: 85.4%
[37]
  viability, T/C: 79%
[38]
  viability, T/C: 90.9%
Second compound 10 µM, first compound 10 µM
  viability, T/C: 71%
